Assay results published in US20190298743A1, “TREATMENT OF PAIN” (Takeda Pharmaceutical Company Limited, priority 2016, published 2019).

Key:
PAR2 [1] = assay: BRET resensitisation assay, PAR2-RLuc8 with TGN38-venus in HEK293 cells; type: cell-based; details: 30 minute pre-treatment, all three proteases
Experimental: BRET resensitisation assays were used to quantify export of PAR2 from the trans-golgi network (TGN38-venus) upon stimulation of receptor expressed at the cell surface with a variety of proteases. The assays were repeated with various inhibitors of signaling nodes to verify signaling mechanisms behind receptor resensitisation.
After achieving ˜50% confluency within 10 cm dishes HEK293 cells were transiently transfected with PAR2-RLuc8 (1 μg) and TGN38-Venus (4 μg) using PEI as a transfection agent. 24 hours post transfection, cells were seeded into poly-D-lysine coated 96-well isoplates. BRET experiments were conducted the following day. Cells were allowed to equilibrate in either 1×HBSS (+0-28 g HEPES/100 ml, pH 7-40), […] Gallein (Gβγ inhibitor), 100 nM CRT0066101 (PKD inhibitor) or G06983 (PKC inhibitor) at 37° C. for 30 minutes before the addition of colenterazine H [5 μM]. Following a 5 minute incubation BRET was assessed using a LUMIstar Omega microplate reader (BMG LabTech, Offenburg, Germany), with luminescence being read at 535 nm and 475 nm. A 4 minute baseline was obtained before the addition of vehicle (1×HBSS) or protease, measurements were then continued for a further 30 minutes. BRET ratios were calculated using LUMIstar MARS analysis software and then corrected to baseline and vehicle treatments in Microsoft Excel 2013.

PAR2 [2] = assay: BRET proximity of PAR2 to KRas (plasma membrane) and Rab5a (endosomes) in HEK cells; type: cell-based
Experimental: (§1) The contribution of endocytosis of protease-activated receptor-2 (PAR2) was evaluated for generation of signals in subcellular compartments that mediate protease-evoked sensitization of nociceptors. Bioluminescence resonance energy transfer (BRET) was used to assess the proximity of PAR2 to resident proteins of the plasma membrane (KRas) and endosomes (Rab5a) in HEK cells. […] Förster resonance energy transfer (FRET) biosensors targeted to the plasma membrane, cytosol or nucleus were used to examine the capacity of proteases to generate signals in subcellular compartments of HEK cells and rat dorsal root ganglia neurons. […] Dynamin inhibitor Dyngo4a, Clathrin inhibitor Pitstop2 and dominant negative β-arrestin inhibited trypsin-evoked endocytosis of PAR2, and prevented trypsin-evoked activation of cytosolic cAMP and PKC and nuclear ERK. […] To examine the link between PAR2 endocytosis, compartmentalized signaling and nociceptor sensitization, perforated patch clamp recordings were made from mouse dorsal root ganglia neurons. […] The effects of proteases on excitability were blocked by the PAR2 antagonist GB88. Thus, canonical and biased proteases sensitize nociceptors by distinct mechanisms. For canonical agonists, PAR2 endocytosis generates compartmentalized signals subcellular compartments that underlie sustained excitability of nociceptive neurons. Inhibiting endosomal signaling of PAR2 may provide a novel method of treating protease-evoked pain.

[3] = Protease-evoked paw edema, hindpaw thickness; type: in vivo, mice
Experimental: (§2) Immediately before experiments the mice were acclimatized to the experimental apparatus, room and investigator for 1-2 h on 2 successive days. Mechanical nociceptive responses were evaluated by paw withdrawal to stimulation of the plantar surface of the hind-paw with calibrated von Frey filaments. von Frey scores were measured in triplicate to establish a baseline for each animal on the day before experiments. Paw edema was estimated by measuring the thickness of the hindpaw using digital calipers before and after treatments. Mice were […] with 5% isoflurane for intraplantar injections. Dyngo4a (50 μM), PitStop2 (50 μM) or vehicle (0.2% DMSO in 0.9% NaCl) (all 10 μl) were injected into the left hindpaw. After 30 min, trypsin (10 nM), Cat-S (2.5 μM) or elastase (30 U) (all 10 μl) were injected into the same left hindpaw. von Frey scores (left and right paws) and paw thickness (left paw) were measured hourly for up to 4 h after protease injection. Investigators were blinded to the test agents.

DRG neurons = assay: Perforated patch-clamp excitability (rheobase) of isolated DRG neurons; type: cell-based, mice; details: for Effect of inhibitor alone on rheobase: 0 or 30 min; for Effect on cathepsin S- or elastase-induced decrease in rheobase (sustained excitability) at 30 min / Effect on trypsin-induced decrease in rheobase (sustained excitability) at 30 min / Effect on protease induced decrease in rheobase (initial hyperexcitability) at 0 min: inhibitor 30 min before and during protease; for Effect on protease induced decrease in rheobase (initial hyperexcitability) at 0 min: trypsin, cathepsin S or elastase
Experimental: To assess the effects of proteases on excitability of nociceptors, DRG neurons were preincubated with trypsin, cathepsin S, elastase or vehicle (control), washed, and rheobase and action potential discharge at a current of twice rheobase were measured at 0 min or 30 min after washing.
DRG (T9-T13) from C57BL/6 mice were digested by incubation in collagenase (1 mg/ml, Worthington Biochemical, Lakewood, N.J.) and dispase (4 mg/ml, Roche Life Science, Indianapolis, Ind.) for 10 min at 37° C., and were dispersed by trituration with a fire-polished Pasteur pipette. Cells were plated onto coverslips coated with laminin (0.017 mg/ml) and poly-D-lysine (2 mg/ml) in 24-well plates. Neurons were cultured in F12 medium (Cat N668, Lot RNBD5333, Sigma-Aldrich, St Louis, Mo. USA) containing 10% fetal calf serum, with penicillin and streptomycin and maintained at 37° C. in a humidified atmosphere of 95% air and 5% CO2 until retrieval (16 h) for electrophysiological studies.
Neuronal excitability was assessed by perforated patch-clamp recordings with amphotericin B (240 μg/ml) from small diameter neurons (<30 pF capacitance) in current clamp mode at room temperature. Only neurons with resting membrane potentials more negative than −40 mV were analyzed. Changes in excitability were quantified by measuring rheobase (minimum current to fire action potential) and numbers of action potentials discharged at twice rheobase. Recordings were made using Axopatch 200B amplifiers, digitized by Digidata 1322A and stored and processed using pClamp 10.1 software (Molecular Devices, Sunnyvale, Calif.). The recording chamber was continuously perfused with external solution at 2 ml/min. External solution was (mM): 140 NaCl, 5 KCl, 10 HEPES, 10 D-glucose, 1 MgCl2, 2 CaCl2; pH to 7.4 with 3 M NaOH. Pipette solution was (mM): 110 K-gluconate, 30 KCl, 10 HEPES, 1 MgCl2, 2 CaCl2; pH 7.25 with 1 M KOH.
DRG neurons were pre-incubated with vehicle (control) or proteases using conditions that we have reported to cause robust hyperexcitability: trypsin (50 nM, 10 min), elastase (10 U/ml, 390 nM, 30 min), Cat-S (500 nM, 60 min). Neurons were then washed and maintained in protease-free F12 medium. Neuronal excitability was assessed 0 or 30 min after washing. In some experiments, neurons were incubated with vehicle (0.3% DMSO), Dyngo4a (30 μM) or PitStop2 (15 μM) for 30 min before and during incubation with proteases.
Results are expressed as mean±SE. Two way ANOVA and post hoc Tukey's tests were used to analyze the data.

PAR2 [4] = assay: BRET receptor trafficking, PAR2-RLuc8 with early endosomal marker Rab5a-venus in HEK293 cells; type: cell-based; details: for Effect on trypsin evoked internalisation, early endosomal marker: 30 μM inhibitor, 30 minute pre-treatment
Experimental: (§3) Bret studies of receptor trafficking were conducted to quantify PAR2 internalisation (RIT-venus) and trafficking to early endosomes (Rab5a-venus) upon stimulation with different agonists.
(§4) After achieving ˜50% confluency within 10 cm dishes HEK293 cells were transiently transfected with 1 μg PAR2-RLuc8 and 4 μg of either RIT-venus or Rab5a-venus using PEI as a transfection agent. 24 hours post transfection, cells were seeded into poly-D-lysine coated 96-well isoplates. […] When used endocytic inhibitors were diluted in 1×HBSS+1% dimethyl sulfoxide (DMSO). Following the replacement of culture media cells were allowed to equilibrate at 37° C. for 30 minutes before the addition of colenterazine H [5 μM]. After a further 5 minute incubation BRET was assessed using a LUMIstar Omega microplate reader (BMG LabTech, Offenburg, Germany), with luminescence being read at 535 nm and 475 nm. A 4 minute baseline was obtained before the addition of vehicle (1×HBSS+/−1% DMSO) or protease, measurements were then continued for a further 30 minutes. BRET ratios were calculated using LUMIstar MARS analysis software and then corrected to baseline and vehicle treatments in Microsoft Excel 2013.

[5] = Protease-evoked mechanical hyperalgesia, von Frey paw withdrawal; type: in vivo, mice; details: for Effect on trypsin-evoked mechanical hyperalgesia: 30 min before trypsin
Experimental: as §2

PAR2 [6] = assay: FRET biosensors for compartmentalised cAMP, PKC and ERK signals in HEK cells and rat dorsal root ganglia neurons; type: cell-based
Experimental: as §1

PAR2 [7] = assay: BRET receptor trafficking, PAR2-RLuc8 with plasma membrane marker RIT-venus in HEK293 cells; type: cell-based; details: for Effect on trypsin evoked internalisation, plasma membrane marker: 30 μM inhibitor, 30 minute pre-treatment
Experimental: as §3, §4

PAR2 [8] = assay: Whole population FRET with cytosolic ERK sensor CytoEKAR in HEK293 cells; type: cell-based
Experimental: (§5) Förster Resonance Energy Transfer (FRET) was used to characterise PAR2 mediated ERK within different subcellular compartments upon stimulation with different agonists. The assays were repeated after employing pharmacological and genetic approaches shown to abolish receptor internalisation to assess the role of internalisation in generating compartmentalised signals.
(§6) After achieving ˜50% confluency within 10 cm dishes HEK293 cells were transfected with 2-5 μg of PAR2 with N-terminal HA epitope tag (PAR2-HA) and 2-5 μg of desired FRET biosensor, using PEI as a transfection agent. 24 hours after transfection, cells were seeded into poly-D-lysine coated black 96 well isoplates. FRET was assessed 48 hours after cell plating, following overnight serum restriction. […] When used endocytic inhibitors were diluted in 1×HBSS+1% dimethyl sulfoxide (DMSO). Following the replacement of culture media cells were allowed to equilibrate at 37° C. for 30 minutes. FRET was then determined using a PHERAstar FS microplate reader (BMG LabTech, Offenburg, Germany), cells were sequentially excited at 430 nm with emissions being read at 550 nm and 490 nm. A 4 minute baseline was obtained before the addition of vehicle (1×HBSS+/−1% DMSO), protease or 1 μM PDBu (serving as a positive control). Measurements were then continued every minute for a further 30 minutes. FRET ratios were then calculated and corrected to baseline and vehicle treatments in Microsoft Excel 2013.

PAR2 [9] = assay: Whole population FRET with nuclear ERK sensor NucEKAR in HEK293 cells; type: cell-based
Experimental: as §5
as §6, with “Measurements were then continued every minute for a further 30 minutes.” left out

[10] = intraplantar 50 μM, 30 min before protease

| Molecule | Effect on protease induced PAR2 trafficking away from the trans-golgi network (PAR2 [1]) | Effect on trypsin-evoked endocytosis of PAR2 (PAR2 [2]) | Effect of inhibitor alone on rheobase (DRG neurons) | Effect on cathepsin S- or elastase-induced decrease in rheobase (sustained excitability) at 30 min (DRG neurons) | Effect on trypsin-induced decrease in rheobase (sustained excitability) at 30 min (DRG neurons) | Effect on protease induced decrease in rheobase (initial hyperexcitability) at 0 min (DRG neurons) | Effect on trypsin evoked internalisation, early endosomal marker (PAR2 [4]) | Effect on trypsin-evoked mechanical hyperalgesia ([5]; intraplantar 50 μM) | Effect on trypsin-evoked activation of cytosolic cAMP and PKC and nuclear ERK (PAR2 [6]) | Effect on trypsin evoked internalisation, plasma membrane marker (PAR2 [7]) | further results |
| --- | --- | --- | --- | --- | --- | --- | --- | --- | --- | --- | --- |
| CC[C@@H](N)CNc1ccnc(-c2cc(-c3cnn(C)c3)ccc2O)n1.Cl.Cl [CRT0066101] | Less prominent effects | – | – | – | – | – | – | – | – | – | – |
| O=C(N/N=C/c1cc(O)c(O)cc1O)c1cc2ccccc2cc1O [Dyngo4a, reference compound] | – | inhibited | Neither vehicle, PitStop2 nor Dyngo4a alone affected rheobase | no effect and not | prevented | did not affect | less pronounced inhibition | inhibited | prevented | less pronounced inhibition | Effect on trypsin-, Cat-S- or elastase-evoked edema [3, 10]: did not affect; Effect on Cat-S- or elastase-evoked mechanical hyperalgesia [5, 10]: did not affect |
| COc1ccc2c(c1)c(C1=C(c3c[nH]c4ccccc34)C(=O)NC1=O)cn2CCCN(C)C [G06983] | Less prominent effects | – | – | – | – | – | – | – | – | – | – |
| O=C1OC2(c3ccccc31)c1ccc(O)c(O)c1Oc1c2ccc(O)c1O [Gallein] | reduced PAR2 trafficking away from the trans-golgi network | – | – | – | – | – | – | – | – | – | – |
| O=C1NC(=NS(=O)(=O)c2cccc3ccccc23)S/C1=C\c1ccc(Br)cc1 [PitStop2, reference compound] | – | inhibited | Neither vehicle, PitStop2 nor Dyngo4a alone affected rheobase | no effect | prevented | did not affect | reduced the magnitude of BRET | inhibited | prevented | reduced the magnitude of BRET | Effect on trypsin evoked cytosolic ERK phosphorylation (PAR2 [8]; 30 μM inhibitor, 30 minute pre-treatment): diminished; Effect on cathepsin S- or elastase-induced decrease in rheobase (sustained excitability) at 30 min (DRG neurons; listed as Pitstop2): not |
| elastase | – | – | – | – | – | – | – | – | – | – | PAR2 endocytosis induced by agonist (PAR2 [2]; HEK cells): did not induce PAR2 endocytosis; Ability of agonist to produce ERK signals within the cytoplasm (PAR2 [8]): not; Edema after intraplantar injection of protease ([3]; ipsilateral paw): edema of the ipsilateral paw that was maximal after 4 h; Effect of protease on excitability (rheobase) of DRG neurons (DRG neurons; 0 min and 30 min after washing): immediate increase in excitability; Change in BRET between PAR2 and early endosomal marker upon agonist stimulation (PAR2 [4]; trypsin 10 nM): not observed; Mechanical hyperalgesia after intraplantar injection of protease ([5]; ipsilateral paw): caused mechanical hyperalgesia of the ipsilateral paw that was sustained for at least 4 h; Ability of agonist to produce ERK signals within the nucleus (PAR2 [9]): not; Signals generated by protease in subcellular compartments (PAR2 [6]): only activated cAMP and PKC at the plasma membrane and ERK in the cytosol; Change in BRET between PAR2 and plasma membrane marker upon agonist stimulation (PAR2 [7]; trypsin 10 nM): not observed |
